# Key:
# [1] = tested on: HeLa cells (cervical carcinoma); assay: MTT antiproliferative assay, HeLa; assay type: cell-based, human; conditions: Homo sapiens, triplicate, read-out: In vitro cytotoxicity IC50, HeLa
# Description: (§1) The in vitro antiproliferative activity of all synthesised compounds was evaluated by an MTT assay according to the reported method[47]^,[48].
# (§2) 2. Experimental procedure
# (§3) 2.1. Antiproliferative screening
# (§4) The in vitro antiproliferative activity of all synthesized compounds was evaluated by an MTT assay according to the reported method using five different human cancer cell lines, including […]
# (§5) cervical carcinoma (HeLa), and human prostate cancer (PC-3). The cell lines were obtained from ATCC via a holding company for biological products and vaccines (VACSERA), Cairo, Egypt. The MTT assay is a colorimetric assay used for measuring the cellular growth based on the reduction of the yellow MTT to a purple formazan derivative by mitochondrial succinate dehydrogenase in viable cells. The color intensity of the formazan dye is correlated to the number of viable cells. The […]
# (§6) IC50% values were calculated using dose response curves. The percentage of relative cell viability was calculated as (A570 of treated samples)/(A570 of untreated sample) × 100. The cytotoxic activity was defined as the concentration of the compound that caused 50% growth inhibition compared with the growth of an untreated cell. […]
# MCF-7 cells [2] = assay: Cell cycle analysis by PI flow cytometry, MCF-7; conditions: MCF-7, 10 µM, 24 h
# Description: (§7) A comparison was made to the control (DMSO) and reference (gefitinib).
# Cell cycle analysis and induction of apoptosis
# Flow cytometry analysis of the cell cycle distribution
# incubation period, the cells were collected, centrifuged, and ﬁxed with ice-cold ethanol (70%). The cells were subsequently treated with a buffer containing RNAse A and 0.1% Triton X-100, and stained
# with PI. The cells were compared with the control, which was treated with DMSO. The DNA content
# was measured by flow cytometry [50-52].
# [3] = tested on: human caspase-3 (active) in MCF-7 cells; assay: Caspase-3 ELISA in MCF-7 cells; assay type: cell-based
# Description: Caspases are critical mediators of programmed cell death, that is, apoptosis. Caspase-3 is important in processes involving dissociation of the cell and the formation of the apoptotic element; therefore, it is regarded as one of the best biochemical hallmarks of apoptosis. […] The concentration of active caspase-3 was measured using the ELISA technique. In addition, the fluorescence density produced by the tested compounds is illustrated in Figure 4. […] The level of caspase-3 increased 5.7-fold compared to the control. Moreover, a considerable 7.3-fold increase in the caspase-3 level was detected following the treatment of the MCF-7 cells with compound 11. The bioluminescent intensities of caspase-3 indicated the apoptotic activity of compounds 3 and 11.
# Afterward, measure luminescence using the
# tested in triplicates.[36-38].
# active caspase-3 [49]. […] The tested
# Subsequently, 100 µL of an
# incubated for 30 min at room temperature.
# chromogen. […] The intensity of the resulting colored
# [4] = tested on: HePG2 cells (hepatocellular carcinoma); assay: MTT antiproliferative assay, HePG2; assay type: cell-based, human; conditions: Homo sapiens, HepG2, MTT assay, HePG2, triplicate; read-out: In vitro cytotoxicity IC50, HePG2
# Description: as §1, §2, §3, §4, §5, §6
# [5] = tested on: MCF-7 cells (human breast adenocarcinoma); assay: MTT antiproliferative assay, MCF-7; assay type: cell-based; conditions: Homo sapiens, MCF7, MTT assay, MCF-7, triplicate; read-out: In vitro cytotoxicity IC50, MCF-7
# Description: as §1, §2, §3, §4, §5, §6
# EGFR TK = target: T1, EGFR TK (Homo sapiens, UniProt P00533); assay: EGFR TK inhibition assay (luminescent, Kinase-Glo MAX); assay type: biochemical
# T1 construct: add 20 μl of diluted EGFR enzyme and incubate at 30°C for 40
# Description: 2.2. Epidermal growth factor inhibition assay
# In vitro luminescent EGFR tyrosine kinase assay, using Kinase-Glo® MAX as a detection reagent using DP‐Glo™ reagent that measures the adenosine diphosphate (ADP) formed from a kinase reaction, were performed; this luminescent signal positively correlates with ADP amount and kinase activity. In 17 μl of distilled water, 6 μl of Kinase assay buffer and 1 μl ATP and 1 μl PTK substrate were mixed (master mixture). In every well, mix 20 μl of the master mixture and 5 μl of Inhibitor solution (Test Inhibitor) for positive control, and use 5 μl of the same solution without inhibitor (Inhibitor buffer) as the blank solution; add 20 μl of diluted EGFR enzyme and incubate at 30°C for 40
# [6] = tested on: HCT-116 cells (colorectal carcinoma); assay: MTT antiproliferative assay, HCT-116; assay type: cell-based, human; conditions: Homo sapiens, HCT-116, MTT assay, HCT-116, triplicate; read-out: In vitro cytotoxicity IC50, HCT-116
# Description: as §1, §2, §3, §4, §5, §6
# WI38 normal cell = assay: MTT cytotoxicity on normal fibroblast cells; assay type: cell-based; conditions: Homo sapiens, WI-38; MTT assay, non tumour normal cell WI38
# [7] = tested on: PC3 cells (human prostate carcinoma); assay: MTT antiproliferative assay, PC3; assay type: cell-based; conditions: PC-3, PC3, triplicate, read-out: In vitro cytotoxicity IC50, PC3
# Description: as §1, §2, §3, §4, §5, §6
# MCF-7 cells [8] = assay: Annexin V-FITC/PI apoptosis assay, MCF-7; conditions: MCF-7, 10 µM, 24 h
# Description: as §7
# The cell line samples were analysed using FACSCalibur flow cytometer.
# with PI. The cells were compared with the control, which was treated with DMSO.
# Analysis of cellular apoptosis
# concentration, respectively, and then incubated for 24 h. Following incubation, 1 –5 × 10^5 cells were
# harvested and suspended in 500 µ L of the binding buffer, 5 µ L of annexin V-FITC, and 5 µL of PI.
# annexin V-FITC conjugate is specially engineered to produce an enhanced fluorescence signal and
# photostability. The annexin V-FITC kit included annexin V-FITC for detecting apoptosis as well as PI
# for detecting necrosis. Thus, apoptosis and necrosis could be effectively differentiated. Detection and
# analysis of the annexin V-FITC binding by flow cytometry was conducted using a FITC signal
# detector (typically FL1). PI staining was evaluated by a phycoerythrin emission signal detector
# T1 sequence (P00533 25-1210): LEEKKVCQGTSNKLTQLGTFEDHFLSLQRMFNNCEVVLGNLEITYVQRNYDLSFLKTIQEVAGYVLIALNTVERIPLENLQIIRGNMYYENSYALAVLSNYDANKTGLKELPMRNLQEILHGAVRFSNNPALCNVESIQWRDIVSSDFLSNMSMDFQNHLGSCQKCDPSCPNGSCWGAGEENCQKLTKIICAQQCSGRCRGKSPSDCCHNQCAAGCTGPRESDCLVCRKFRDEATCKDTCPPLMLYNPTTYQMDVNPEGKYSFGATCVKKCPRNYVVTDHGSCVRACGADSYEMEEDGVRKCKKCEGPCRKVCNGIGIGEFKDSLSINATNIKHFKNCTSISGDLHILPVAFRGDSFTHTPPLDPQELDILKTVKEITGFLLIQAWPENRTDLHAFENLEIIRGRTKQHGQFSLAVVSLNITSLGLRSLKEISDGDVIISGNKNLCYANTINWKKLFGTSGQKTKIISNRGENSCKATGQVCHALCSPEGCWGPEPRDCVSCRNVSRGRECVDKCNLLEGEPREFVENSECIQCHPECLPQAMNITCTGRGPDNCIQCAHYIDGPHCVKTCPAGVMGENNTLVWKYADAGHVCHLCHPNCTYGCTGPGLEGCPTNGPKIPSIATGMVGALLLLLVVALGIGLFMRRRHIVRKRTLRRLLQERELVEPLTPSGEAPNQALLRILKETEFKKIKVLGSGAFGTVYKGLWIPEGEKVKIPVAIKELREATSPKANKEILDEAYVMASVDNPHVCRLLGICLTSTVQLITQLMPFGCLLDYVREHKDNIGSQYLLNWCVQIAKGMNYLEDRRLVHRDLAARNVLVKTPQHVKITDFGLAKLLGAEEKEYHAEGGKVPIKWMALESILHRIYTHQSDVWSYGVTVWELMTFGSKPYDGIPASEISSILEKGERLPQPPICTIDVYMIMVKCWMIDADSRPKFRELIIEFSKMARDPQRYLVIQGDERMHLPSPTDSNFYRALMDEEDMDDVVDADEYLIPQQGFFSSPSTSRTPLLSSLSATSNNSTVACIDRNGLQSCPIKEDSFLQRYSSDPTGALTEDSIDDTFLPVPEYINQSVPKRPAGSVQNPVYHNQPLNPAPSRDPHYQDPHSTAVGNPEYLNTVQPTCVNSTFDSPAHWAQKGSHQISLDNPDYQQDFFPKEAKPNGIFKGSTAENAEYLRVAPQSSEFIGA
structure (smiles),measurement,setting,value
"N#Cc1c(-c2cc3ccccc3o2)ccnc1NCCc1ccccc1 [Compound 11, 4-(Benzofuran-2-yl)-2-(phenethylamino)nicotinonitrile]",IC50,[1],32.1 ± 1.9 µM
same,%Pre/G1,"MCF-7 cells [2]; control 0.55, '% Apoptosis' in Figure 6A",16.25%
same,%G2/M,MCF-7 cells [2]; control 3.66,15.28%
same,%S,MCF-7 cells [2]; control 27.37,21.36%
same,%G0/G1,MCF-7 cells [2]; control 66.42,47.11%
same,Caspase-3 Conc.,"[3]; ELISA, control 60.7",440.08 pg/mL
same,"Caspase-3 level, Fold",[3]; compared to the control,7.3 fold
same,IC50,[4],20.4 ± 1.6 µM
same,IC50,[5],14.6 ± 1.3 µM
same,IC50,EGFR TK,0.81 µM
same,IC50,[6],46.1 ± 2.7 µM
same,IC50,WI38 normal cell,94.5 ± 5.13 µM
same,IC50,[7],18.8 ± 1.5 µM
same,Necrosis,MCF-7 cells [8]; control 0.15,1.23%
same,Early apoptosis,MCF-7 cells [8]; control 0.16,6.89%
same,Late apoptosis,MCF-7 cells [8]; control 0.24,8.13%
same,"Apoptosis, Total",MCF-7 cells [8]; control 0.55,16.25%

# Reference: article PMC8266232, “Design, synthesis, and analysis of antiproliferative and apoptosis-inducing activities of nitrile derivatives containing a benzofuran scaffold: EGFR inhibition assay and molecular modelling study” (Journal of Enzyme Inhibition and Medicinal Chemistry, 2021)
